Assays:
Experiment in all cases: KINOMEscan competition binding
Conditions in all cases: compound 10.0 µM
[1] = target: PIP5K1A (human) (UniProt Q99755)
[2] = target: EPHA8 (human) (UniProt P29322)
[3] = target: CHEK2 (human) (UniProt O96017)
[4] = target: MAPK11 (human) (UniProt Q15759)
[5] = target: PLK2 (human) (UniProt Q9NYY3)
[6] = target: FGFR2 (human) (UniProt P21802)
[7] = target: PIK3CA (human) (UniProt P42336)
[8] = target: LTK (human) (UniProt P29376)
[9] = target: MAPK15 (human) (UniProt Q8TD08)
Chain of MAPK15 (human) (Q8TD08 whole entry, looked up): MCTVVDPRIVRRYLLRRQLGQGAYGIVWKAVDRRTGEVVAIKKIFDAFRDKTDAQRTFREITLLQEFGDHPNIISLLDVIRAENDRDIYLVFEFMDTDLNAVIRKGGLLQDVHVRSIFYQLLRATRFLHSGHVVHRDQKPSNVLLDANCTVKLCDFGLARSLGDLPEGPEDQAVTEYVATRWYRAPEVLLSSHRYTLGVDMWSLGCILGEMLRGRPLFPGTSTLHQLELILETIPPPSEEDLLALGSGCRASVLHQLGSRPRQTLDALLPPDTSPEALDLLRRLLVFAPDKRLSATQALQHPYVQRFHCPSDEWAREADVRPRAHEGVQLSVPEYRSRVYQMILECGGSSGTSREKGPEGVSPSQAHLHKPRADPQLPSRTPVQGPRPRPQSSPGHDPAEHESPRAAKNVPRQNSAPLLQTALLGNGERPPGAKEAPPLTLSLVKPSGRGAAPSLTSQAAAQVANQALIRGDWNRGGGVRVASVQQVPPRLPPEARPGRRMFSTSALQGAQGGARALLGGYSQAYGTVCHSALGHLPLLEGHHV

[10] = system: KIT (human), P10721 [V559D/V654A]
[11] = target: PLK3 (human) (UniProt Q9H4B4)
[12] = target: FGR (human) (UniProt P09769)
[13] = target: LATS1 (human) (UniProt O95835)
[14] = target: DDR1 (human) (UniProt Q08345)
[15] = target: MAP3K13 (human) (UniProt O43283)
[16] = target: ACVR2A (human) (UniProt P27037)
[17] = target: PRKCD (human) (UniProt Q05655)
[18] = target: SIK2 (human) (UniProt Q9H0K1)
[19] = target: PDGFRB (human) (UniProt P09619)
[20] = target: RIOK1 (human) (UniProt Q9BRS2)
[21] = target: RAF1 (human) (UniProt P04049)
[22] = target: CLK4 (human) (UniProt Q9HAZ1)
Chain of CLK4 (human) (Q9HAZ1 whole entry, looked up): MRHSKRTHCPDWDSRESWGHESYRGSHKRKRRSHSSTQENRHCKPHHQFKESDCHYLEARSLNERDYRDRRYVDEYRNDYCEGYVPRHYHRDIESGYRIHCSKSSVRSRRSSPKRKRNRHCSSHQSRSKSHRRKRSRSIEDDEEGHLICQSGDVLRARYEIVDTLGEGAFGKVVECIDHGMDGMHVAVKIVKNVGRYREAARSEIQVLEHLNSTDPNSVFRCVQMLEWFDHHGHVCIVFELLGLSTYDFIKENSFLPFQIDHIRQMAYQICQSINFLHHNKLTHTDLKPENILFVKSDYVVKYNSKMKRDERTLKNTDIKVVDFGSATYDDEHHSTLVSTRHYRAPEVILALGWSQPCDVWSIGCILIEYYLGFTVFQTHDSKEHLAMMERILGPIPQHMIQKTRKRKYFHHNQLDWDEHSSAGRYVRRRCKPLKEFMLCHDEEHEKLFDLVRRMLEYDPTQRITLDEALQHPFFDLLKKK

[23] = target: TGFBR1 (human) (UniProt P36897)
[24] = target: NEK2 (human) (UniProt P51955)
Chain of NEK2 (human) (P51955 whole entry, looked up): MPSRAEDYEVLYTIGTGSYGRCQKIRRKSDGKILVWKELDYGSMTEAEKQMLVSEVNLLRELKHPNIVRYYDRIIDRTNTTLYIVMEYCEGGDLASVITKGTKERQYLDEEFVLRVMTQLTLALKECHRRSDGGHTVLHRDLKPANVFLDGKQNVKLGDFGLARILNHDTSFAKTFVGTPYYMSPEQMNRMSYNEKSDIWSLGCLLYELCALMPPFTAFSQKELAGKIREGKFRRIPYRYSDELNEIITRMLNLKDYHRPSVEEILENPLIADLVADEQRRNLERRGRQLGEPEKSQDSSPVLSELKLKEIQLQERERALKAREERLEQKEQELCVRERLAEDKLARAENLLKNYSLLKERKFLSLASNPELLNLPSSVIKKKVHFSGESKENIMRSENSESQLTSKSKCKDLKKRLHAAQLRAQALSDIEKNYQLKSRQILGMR

[25] = target: DYRK1B (human) (UniProt Q9Y463)
[26] = target: DSTYK (human) (UniProt Q6XUX3)
[27] = target: WEE2 (human) (UniProt P0C1S8)
[28] = target: IRAK4 (human) (UniProt Q9NWZ3)
[29] = target: MAP2K3 (human) (UniProt P46734)
Chain of MAP2K3 (human) (P46734 whole entry, looked up): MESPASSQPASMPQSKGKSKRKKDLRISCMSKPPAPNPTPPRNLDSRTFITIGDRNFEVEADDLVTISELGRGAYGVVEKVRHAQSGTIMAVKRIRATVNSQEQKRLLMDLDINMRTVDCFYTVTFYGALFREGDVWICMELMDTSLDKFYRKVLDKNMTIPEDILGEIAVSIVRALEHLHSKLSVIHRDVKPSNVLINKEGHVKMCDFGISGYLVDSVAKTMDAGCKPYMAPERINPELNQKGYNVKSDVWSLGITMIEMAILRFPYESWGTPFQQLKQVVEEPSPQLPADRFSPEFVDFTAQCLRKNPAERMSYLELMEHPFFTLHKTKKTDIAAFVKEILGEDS

[30] = target: MAK (human) (UniProt P20794)
[31] = target: GSK3A (human) (UniProt P49840)
[32] = target: CDK9 (human) (UniProt P50750)
Chain of CDK9 (human) (P50750 whole entry, looked up): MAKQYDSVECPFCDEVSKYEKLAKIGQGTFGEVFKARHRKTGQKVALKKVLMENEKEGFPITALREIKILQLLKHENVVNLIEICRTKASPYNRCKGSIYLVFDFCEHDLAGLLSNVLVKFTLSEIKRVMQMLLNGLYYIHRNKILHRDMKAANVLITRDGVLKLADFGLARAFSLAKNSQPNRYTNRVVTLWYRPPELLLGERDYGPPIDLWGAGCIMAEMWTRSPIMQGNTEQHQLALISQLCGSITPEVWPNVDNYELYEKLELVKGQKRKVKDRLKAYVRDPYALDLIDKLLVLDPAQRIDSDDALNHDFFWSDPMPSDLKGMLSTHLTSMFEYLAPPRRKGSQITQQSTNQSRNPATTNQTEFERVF

[33] = target: CDC2L2 (human) (UniProt Q9UQ88)
[34] = target: MERTK (human) (UniProt Q12866)
[35] = target: AURKA (human) (UniProt O14965)
[36] = target: TNNI3K (human) (UniProt Q59H18)
Chain of TNNI3K (human) (Q59H18 whole entry, looked up): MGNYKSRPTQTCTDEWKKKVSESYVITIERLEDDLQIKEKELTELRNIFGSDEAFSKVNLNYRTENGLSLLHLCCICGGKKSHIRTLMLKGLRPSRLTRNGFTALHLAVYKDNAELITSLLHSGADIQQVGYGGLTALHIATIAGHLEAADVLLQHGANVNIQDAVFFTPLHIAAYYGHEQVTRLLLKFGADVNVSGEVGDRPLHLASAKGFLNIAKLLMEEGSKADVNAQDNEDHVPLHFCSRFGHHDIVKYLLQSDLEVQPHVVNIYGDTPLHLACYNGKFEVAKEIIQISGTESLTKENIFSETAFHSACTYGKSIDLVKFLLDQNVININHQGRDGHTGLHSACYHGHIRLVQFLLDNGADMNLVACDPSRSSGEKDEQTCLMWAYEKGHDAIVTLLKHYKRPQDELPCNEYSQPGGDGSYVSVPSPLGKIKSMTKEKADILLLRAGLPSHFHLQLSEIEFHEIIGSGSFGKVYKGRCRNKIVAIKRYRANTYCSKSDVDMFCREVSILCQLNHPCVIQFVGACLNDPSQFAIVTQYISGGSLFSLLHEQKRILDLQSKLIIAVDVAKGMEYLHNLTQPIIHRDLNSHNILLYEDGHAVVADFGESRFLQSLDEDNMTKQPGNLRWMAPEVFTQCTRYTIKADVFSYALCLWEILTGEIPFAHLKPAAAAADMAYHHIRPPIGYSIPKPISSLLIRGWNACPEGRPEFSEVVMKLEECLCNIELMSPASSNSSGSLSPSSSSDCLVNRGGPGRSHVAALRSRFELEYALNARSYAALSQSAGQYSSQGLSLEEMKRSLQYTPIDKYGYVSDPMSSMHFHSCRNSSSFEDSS

[37] = target: OXSR1 (human) (UniProt O95747)
[38] = target: CAMK2B (human) (UniProt Q13554)
[39] = target: ICK (human) (UniProt Q9UPZ9)
[40] = target: TYRO3 (human) (UniProt Q06418)
Chain of TYRO3 (human) (Q06418 whole entry, looked up): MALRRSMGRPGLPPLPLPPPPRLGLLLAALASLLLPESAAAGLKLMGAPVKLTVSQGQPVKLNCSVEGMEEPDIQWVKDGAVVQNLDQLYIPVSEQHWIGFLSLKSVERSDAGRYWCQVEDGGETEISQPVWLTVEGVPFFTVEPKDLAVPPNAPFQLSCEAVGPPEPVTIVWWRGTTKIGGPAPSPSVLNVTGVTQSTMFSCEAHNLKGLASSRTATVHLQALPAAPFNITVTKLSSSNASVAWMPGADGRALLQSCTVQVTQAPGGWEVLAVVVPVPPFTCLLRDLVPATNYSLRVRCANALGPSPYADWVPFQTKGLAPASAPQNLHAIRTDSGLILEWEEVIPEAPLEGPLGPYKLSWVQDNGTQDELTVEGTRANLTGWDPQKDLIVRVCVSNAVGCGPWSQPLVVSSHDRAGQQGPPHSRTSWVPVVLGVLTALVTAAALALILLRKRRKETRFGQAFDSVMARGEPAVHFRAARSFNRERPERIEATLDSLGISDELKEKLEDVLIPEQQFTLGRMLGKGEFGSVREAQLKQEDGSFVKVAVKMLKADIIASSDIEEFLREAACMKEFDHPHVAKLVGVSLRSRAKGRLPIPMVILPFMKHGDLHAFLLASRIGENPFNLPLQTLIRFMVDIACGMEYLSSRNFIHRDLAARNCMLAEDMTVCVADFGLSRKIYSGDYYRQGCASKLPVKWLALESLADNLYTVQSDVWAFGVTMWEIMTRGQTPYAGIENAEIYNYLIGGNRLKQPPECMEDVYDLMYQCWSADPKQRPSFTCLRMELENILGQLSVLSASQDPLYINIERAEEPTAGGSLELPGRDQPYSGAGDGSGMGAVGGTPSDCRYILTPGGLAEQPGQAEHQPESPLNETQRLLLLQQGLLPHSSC

Chain of EPHA8 (human) (P29322 whole entry, looked up): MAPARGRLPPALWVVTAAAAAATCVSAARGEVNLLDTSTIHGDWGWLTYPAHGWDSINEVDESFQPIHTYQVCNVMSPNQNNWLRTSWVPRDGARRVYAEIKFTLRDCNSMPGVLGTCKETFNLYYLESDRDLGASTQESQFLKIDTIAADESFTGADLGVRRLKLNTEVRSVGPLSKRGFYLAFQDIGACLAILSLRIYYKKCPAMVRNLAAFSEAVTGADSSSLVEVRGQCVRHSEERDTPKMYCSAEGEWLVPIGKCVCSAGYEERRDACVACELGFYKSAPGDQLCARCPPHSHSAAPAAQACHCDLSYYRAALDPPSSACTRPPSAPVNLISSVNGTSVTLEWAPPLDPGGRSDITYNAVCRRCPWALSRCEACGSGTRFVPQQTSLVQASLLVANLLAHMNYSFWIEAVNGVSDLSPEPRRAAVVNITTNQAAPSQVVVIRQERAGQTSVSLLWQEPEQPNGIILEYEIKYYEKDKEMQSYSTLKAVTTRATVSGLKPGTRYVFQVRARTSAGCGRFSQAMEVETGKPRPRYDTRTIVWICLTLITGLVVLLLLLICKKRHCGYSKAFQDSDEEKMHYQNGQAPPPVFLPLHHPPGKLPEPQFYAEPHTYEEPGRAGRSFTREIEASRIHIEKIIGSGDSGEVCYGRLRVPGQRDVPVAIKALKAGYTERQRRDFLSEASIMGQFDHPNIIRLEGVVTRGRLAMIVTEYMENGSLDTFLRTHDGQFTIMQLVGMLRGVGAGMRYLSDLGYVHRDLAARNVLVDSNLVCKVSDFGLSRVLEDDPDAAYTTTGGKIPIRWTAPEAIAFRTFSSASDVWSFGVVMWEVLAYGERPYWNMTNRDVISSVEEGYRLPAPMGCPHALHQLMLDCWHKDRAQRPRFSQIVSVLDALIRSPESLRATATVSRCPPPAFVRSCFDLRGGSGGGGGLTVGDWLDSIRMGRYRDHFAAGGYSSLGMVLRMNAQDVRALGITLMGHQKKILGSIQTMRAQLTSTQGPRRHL

| Structure (SMILES) | kinase still bound, per cent of control [1] | kinase still bound, per cent of control [2] | kinase still bound, per cent of control [3] | kinase still bound, per cent of control [4] | kinase still bound, per cent of control [5] | kinase still bound, per cent of control [6] | kinase still bound, per cent of control [7] | kinase still bound, per cent of control [8] | kinase still bound, per cent of control [9] | kinase still bound, per cent of control [10] | kinase still bound, per cent of control [11] | kinase still bound, per cent of control [12] | kinase still bound, per cent of control [13] | kinase still bound, per cent of control [14] | kinase still bound, per cent of control [15] | kinase still bound, per cent of control [16] | kinase still bound, per cent of control [17] | kinase still bound, per cent of control [18] | kinase still bound, per cent of control [19] | kinase still bound, per cent of control [20] | other results |
| --- | --- | --- | --- | --- | --- | --- | --- | --- | --- | --- | --- | --- | --- | --- | --- | --- | --- | --- | --- | --- | --- |
| C[C@@H](Oc1cc(-c2cnn(C3CCNCC3)c2)cnc1N)c1c(Cl)ccc(F)c1Cl | 0.1% | 0.2% | 100% | 100% | 73% | 35% | 100% | 0.3% | 80% | 100% | 85% | 6.8% | 100% | 0.4% | 10% | 30% | 100% | 12% | 44% | 3.4% | kinase still bound, per cent of control [21]: 93%; kinase still bound, per cent of control [22]: 100%; kinase still bound, per cent of control [23]: 4%; kinase still bound, per cent of control [24]: 81%; kinase still bound, per cent of control [25]: 84%; kinase still bound, per cent of control [26]: 1.6%; kinase still bound, per cent of control [27]: 100%; kinase still bound, per cent of control [28]: 24%; kinase still bound, per cent of control [29]: 42%; kinase still bound, per cent of control [30]: 63%; kinase still bound, per cent of control [31]: 100%; kinase still bound, per cent of control [32]: 88%; kinase still bound, per cent of control [33]: 0.35%; kinase still bound, per cent of control [34]: 2.1% |
| CS(=O)(=O)N1CCN(Cc2cc3nc(-c4cccc5[nH]ncc45)nc(N4CCOCC4)c3s2)CC1 | 100% | 100% | 100% | 100% | 100% | 100% | 0.15% | 100% | 100% | 100% | 100% | 100% | 100% | 100% | 100% | 100% | 100% | 100% | 100% | 100% | kinase still bound, per cent of control [35]: 100%; kinase still bound, per cent of control [36]: 100%; kinase still bound, per cent of control [21]: 100%; kinase still bound, per cent of control [37]: 100%; kinase still bound, per cent of control [23]: 100%; kinase still bound, per cent of control [24]: 100%; kinase still bound, per cent of control [38]: 100%; kinase still bound, per cent of control [25]: 100%; kinase still bound, per cent of control [27]: 100%; kinase still bound, per cent of control [29]: 100%; kinase still bound, per cent of control [30]: 100%; kinase still bound, per cent of control [31]: 100%; kinase still bound, per cent of control [32]: 100%; kinase still bound, per cent of control [39]: 100%; kinase still bound, per cent of control [40]: 100%; kinase still bound, per cent of control [33]: 100%; kinase still bound, per cent of control [34]: 100% |
| COc1cc(N2CCN(C)CC2)ccc1Nc1ncc2c(n1)N(C)c1ccccc1C(=O)N2C | 100% | 100% | 30% | 100% | 100% | 100% | 100% | 100% | 100% | 100% | 100% | 100% | 100% | 100% | 100% | 100% | 100% | 100% | 100% | 100% | kinase still bound, per cent of control [35]: 100%; kinase still bound, per cent of control [36]: 100%; kinase still bound, per cent of control [21]: 100%; kinase still bound, per cent of control [37]: 100%; kinase still bound, per cent of control [22]: 100%; kinase still bound, per cent of control [23]: 100%; kinase still bound, per cent of control [24]: 100%; kinase still bound, per cent of control [38]: 100%; kinase still bound, per cent of control [25]: 100%; kinase still bound, per cent of control [27]: 100%; kinase still bound, per cent of control [29]: 100%; kinase still bound, per cent of control [30]: 100%; kinase still bound, per cent of control [31]: 100%; kinase still bound, per cent of control [32]: 100%; kinase still bound, per cent of control [39]: 100%; kinase still bound, per cent of control [40]: 100%; kinase still bound, per cent of control [33]: 100%; kinase still bound, per cent of control [34]: 100% |
| CCN(CC)CCCCNc1ncc2c(n1)N(C)C(=O)N(c1c(Cl)c(OC)cc(OC)c1Cl)C2 | 100% | 100% | 100% | 100% | 100% | 2.6% | 100% | 100% | 100% | 100% | 100% | 100% | 100% | 0.15% | 100% | 100% | 100% | 100% | 21% | 100% | kinase still bound, per cent of control [35]: 100%; kinase still bound, per cent of control [36]: 100%; kinase still bound, per cent of control [21]: 100%; kinase still bound, per cent of control [37]: 100%; kinase still bound, per cent of control [22]: 100%; kinase still bound, per cent of control [23]: 100%; kinase still bound, per cent of control [24]: 100%; kinase still bound, per cent of control [38]: 100%; kinase still bound, per cent of control [25]: 100%; kinase still bound, per cent of control [27]: 100%; kinase still bound, per cent of control [29]: 100%; kinase still bound, per cent of control [30]: 100%; kinase still bound, per cent of control [31]: 100%; kinase still bound, per cent of control [32]: 100%; kinase still bound, per cent of control [39]: 100%; kinase still bound, per cent of control [40]: 100%; kinase still bound, per cent of control [33]: 26%; kinase still bound, per cent of control [34]: 100% |
